Values quoted from earlier work as cited in patent publication US20250302745A1, “COMPOSITIONS COMPRISING VANCOMYCIN” (Arecor Limited, priority 2022, published 2025).

System: animal
Settings: excipients of VancoReady; black box warning

Molecule | finding in animal reproductive studies
CC(=O)N[C@H](C)C(=O)O [N-acetyl-D-alanine] | cause fetal malformations
PEG400 | cause fetal malformations
